# Literature values in patent US20100003319A1, “RALOXIFENE IMMEDIATE RELEASE TABLETS” (GLENMARK GENERICS LTD., priority 2008, published 2010).
smiles,measurement,value
"O=C(c1ccc(OCCN2CCCCC2)cc1)c1c(-c2ccc(O)cc2)sc2cc(O)ccc12 [raloxifene, [6-hydroxy-2-(4-hydroxyphenyl)-benzothiophen-3-yl]-[4-[2-(1-piperidyl)ethoxy]phenyl]-methanone]",Solubility in water,very slightly soluble
